Literature values, collected in patent US20260245667A1, “EFFICIENT DETECTION OF DECENTRALIZED BIOMARKERS OF GROUPS OF DNA SEQUENCES IN MICROBIOME DNA” (ALPHABIOME AI LTD, priority 2023, published 2026).

Experiments:
[1] = test system: ruminal methane production; conditions: meta-analyses

**Q.** With `C=CCS[S+]([O-])CC=C` (stereo not drawn) [Allicin] as the compound, how does the “mitigation of methane emissions in vitro” value (methane emissions; in vitro) read?
**A.** up to 38%

**Q.** And the “levels of propionate and butyrate” value (methane emissions; partial incubation periods)?
**A.** elevate

**Q.** Which “methanogenesis inhibition, reduction on average in dairy” value [1] does the source give for `CC[C@@]1([C@@H]2O[C@@H]([C@H]3O[C@@](O)(CO)[C@H](C)C[C@@H]3C)C[C@@H]2C)CC[C@H]([C@]2(C)CC[C@]3(C[C@H](O)[C@@H](C)[C@@H]([C@@H](C)[C@@H](OC)[C@H](C)C(=O)O)O3)O2)O1` [Monensin] here?
**A.** up to 10%
